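Five concentrations, 48 hours, 96-well plates. GI50 = concentration required for 50% inhibition of growth.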 Active and inactive are the calls of the source. Cut-off read from the data, not from the text of the source: active = GI50 up to about 1.1 µM and inactive = higher.
Columns and labels:
Test in all cases: NCI-60 cell line screen, 48 h
[1] = test system: K562
[2] = test system: SW-620
[3] = test system: SN12C
[4] = test system: MDA-N
[5] = test system: HCT-116
[6] = test system: M14
[7] = test system: SK-MEL-2
[8] = test system: HCC 2998
[9] = test system: 786-0
[10] = test system: NCI-H460
[11] = test system: SK-OV-3
[12] = test system: SF-268
[13] = test system: UACC-257
[14] = test system: SR
[15] = test system: NCI-H522
[16] = test system: SK-MEL-5
[17] = test system: HOP-92
[18] = test system: IGROV-1
[19] = test system: Hs-578T

Measured: GI50

CC(C)(C)OC/C=C(/CO)[C@@H]1C=C[C@H](O)C1
inactive: [1] > 100 µM | [2] > 100 µM | [3] > 100 µM | [4] > 100 µM | [5] > 100 µM | [6] > 100 µM | [7] > 100 µM | [8] > 100 µM | [9] > 100 µM | [10] > 100 µM | [11] > 100 µM | [12] > 100 µM | [13] > 100 µM

CCc1n[nH]c(=O)n1NC(=O)c1ccccc1C(=O)O
inactive: [14] > 100 µM | [15] > 100 µM | [1] > 100 µM | [2] > 100 µM | [3] > 100 µM | [16] > 100 µM | [4] > 100 µM | [5] > 100 µM | [6] > 100 µM | [7] > 100 µM | [8] > 100 µM | [17] > 100 µM | [9] > 100 µM | [18] > 100 µM | [11] > 100 µM | [12] > 100 µM | [13] > 100 µM

c1cc(-c2ncc(-c3ccc4c(c3)CCCO4)o2)ccn1
inactive: [15] 3.78 µM | [1] 1.85 µM | [3] 25.8 µM | [16] 9.2 µM | [4] 2.48 µM | [5] 10.7 µM | [6] 21.6 µM | [7] 10.8 µM | [19] 17.4 µM | [17] 21.6 µM | [9] 26.6 µM | [18] 15.6 µM | [11] 15.6 µM | [12] 19.3 µM | [13] 13.2 µM

NS(=O)(=O)c1nnc(NS(=O)(=O)c2ccccc2[N+](=O)[O-])s1
inactive: [14] > 100 µM | [15] > 100 µM | [1] > 100 µM | [2] > 100 µM | [16] > 100 µM | [5] > 100 µM | [6] > 100 µM | [7] > 100 µM | [19] > 100 µM | [8] > 100 µM | [17] > 100 µM | [9] > 100 µM | [10] > 100 µM | [18] > 100 µM | [11] > 100 µM | [12] > 100 µM

Oc1ccc2c(c1)OCC(O)(c1ccccc1O)C2 (centres undefined)
inactive: [1] > 100 µM | [2] > 100 µM | [3] > 100 µM | [16] > 100 µM | [4] > 100 µM | [5] > 100 µM | [6] > 100 µM | [7] > 100 µM | [19] 97.5 µM | [8] > 100 µM | [17] > 100 µM | [9] > 100 µM | [10] > 100 µM | [18] > 100 µM | [11] > 100 µM | [12] > 100 µM | [13] > 100 µM

CC1C(c2ccccc2)O[B-](F)(c2ccccc2)[NH+]1C (centres undefined)
inactive: [14] > 100 µM | [1] > 100 µM | [2] > 100 µM | [3] > 100 µM | [16] > 100 µM | [4] > 100 µM | [5] > 100 µM | [6] > 100 µM | [8] > 100 µM | [17] > 100 µM | [9] > 100 µM | [10] > 100 µM | [18] > 100 µM | [11] > 100 µM | [12] > 100 µM | [13] > 100 µM

CC(C)CCNC(=O)c1ccc(CNC(=O)/C=C/c2ccc(-c3ccccc3[N+](=O)[O-])o2)cc1
inactive: [14] 91.8 µM | [1] 82.6 µM | [2] 41.5 µM | [3] > 100 µM | [16] 18.1 µM | [4] 89.5 µM | [5] 34.2 µM | [6] > 100 µM | [7] 95.7 µM | [8] > 100 µM | [17] > 10 µM | [9] 28.6 µM | [10] > 100 µM | [11] > 100 µM | [12] 18.6 µM | [13] 47 µM

COc1ccccc1NC(=O)C1=C(C)NC(C)=C(C(=O)Nc2ccccc2OC)C1c1ccccc1Cl
inactive: [14] 36.6 µM | [1] 32.7 µM | [2] > 100 µM | [3] > 100 µM | [16] 47.8 µM | [5] 52.8 µM | [6] 91 µM | [7] 88.7 µM | [8] > 100 µM | [17] > 100 µM | [9] > 100 µM | [10] 59.3 µM | [18] > 100 µM | [11] > 100 µM | [12] > 100 µM | [13] > 100 µM

S=C(S)N1CCN(c2ccc(Cl)c(Cl)c2)CC1
inactive: [15] 21.6 µM | [1] 19.3 µM | [2] 21.7 µM | [3] 30.1 µM | [16] 16.1 µM | [4] 19.3 µM | [5] 13.9 µM | [6] 19.7 µM | [7] 17 µM | [19] 23.4 µM | [8] 20.8 µM | [17] 22.3 µM | [9] 28.1 µM | [18] 28.7 µM | [12] 31.8 µM | [13] > 10 µM

O=C(O)c1ccc2c(c1)Cc1cc([N+](=O)[O-])ccc1-2
inactive: [14] 86.1 µM | [15] > 100 µM | [1] 73.5 µM | [2] > 100 µM | [3] > 100 µM | [16] > 100 µM | [5] > 100 µM | [6] > 100 µM | [7] > 100 µM | [19] 76.9 µM | [8] > 100 µM | [17] 30.5 µM | [9] > 100 µM | [10] > 100 µM | [18] > 100 µM | [11] > 100 µM | [12] > 100 µM | [13] 44.1 µM

O=C1Cc2c([nH]c3ccc(Br)cc23)-c2cc(Br)ccc2N1
inactive: [1] > 100 µM | [2] > 100 µM | [16] > 100 µM | [6] > 100 µM | [7] > 100 µM | [8] > 100 µM | [17] > 100 µM | [9] > 100 µM | [10] > 100 µM | [11] > 100 µM | [12] > 100 µM | [13] > 100 µM

CCOC(=O)N1c2ccccc2S(=O)(=O)c2ccccc21
inactive: [15] > 100 µM | [1] > 100 µM | [2] > 100 µM | [3] > 100 µM | [16] > 100 µM | [4] > 100 µM | [5] > 100 µM | [6] > 100 µM | [7] > 100 µM | [19] > 100 µM | [8] > 100 µM | [9] > 100 µM | [10] > 100 µM | [18] > 100 µM | [11] > 100 µM | [12] > 100 µM | [13] > 100 µM
